For series [1] the following is noted: rats; cited from earlier work.
The subject of series [2] is KPC-M09 cells. The series can be described thus: E-Cadherin assay / TGFβ1-mediated EMT in KPC-M09 cells. The conditions noted are these: 30 ng/ml TGFβ plus 2 μM or 10 μM, 48 hours. Format: cell-based, mouse. The text has this:
The primary mouse pancreatic ductal adenocarcinoma (PDAC) cell line KPC-M09 was derived from a pancreatic GEMM [KrasLSL-G12D/+; Trp53LSL-R172H/+; Ptf1aCre/+ (KPC)]. […] Cell morphological changes were imaged at 20X (bright field). Cells were stained with an anti-E-cadherin primary Ab (Cell Signaling, clone 24E10, diluted 1:200) followed with a secondary anti-rabbit Cy3 (Cell Signaling, diluted 1:500). DAPI was used as a counter stain and cells were imaged at 40X.

Series [3] concerns the target T1, ZAK (Homo sapiens, UniProt Q9NYL2).
T1 construct: purchased DiscoverX
Put plainly: KINOMEscan kinase competition binding assay (DiscoverX). The conditions noted are these: absence of ATP, three-point titration. The text has this:
(§1) Data are presented as Geomean ± SD.

The target in series [4] is T2, CSNK1E1 (Homo sapiens, UniProt P49674).
T2 construct: purchased DiscoverX
T2 sequence (P49674 whole entry): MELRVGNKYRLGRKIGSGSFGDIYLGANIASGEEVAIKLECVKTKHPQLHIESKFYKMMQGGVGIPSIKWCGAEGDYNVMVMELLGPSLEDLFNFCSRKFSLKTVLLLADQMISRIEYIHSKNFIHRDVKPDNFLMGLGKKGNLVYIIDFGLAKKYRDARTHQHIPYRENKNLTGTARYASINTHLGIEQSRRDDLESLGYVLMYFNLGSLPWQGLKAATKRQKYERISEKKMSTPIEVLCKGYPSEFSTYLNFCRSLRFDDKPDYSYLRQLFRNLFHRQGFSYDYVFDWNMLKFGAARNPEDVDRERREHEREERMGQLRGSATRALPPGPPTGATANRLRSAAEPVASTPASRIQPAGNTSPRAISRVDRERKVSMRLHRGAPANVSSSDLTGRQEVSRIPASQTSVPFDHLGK
Described as above. To be noted: absence of ATP, three-point titration.
Text: as §1

For series [5], the target named is T3, BMPR2 (Homo sapiens, UniProt Q13873).
T3 construct: purchased DiscoverX
The description is as above. The conditions noted are these: absence of ATP, three-point titration.
Text: as §1

Series [6] has as its target T4, Alk3/BMPR1A (Homo sapiens, UniProt P36894).
T4 construct: purchased DiscoverX
Described as above. To be noted: absence of ATP, three-point titration.
Text: as §1

The target in series [7] is T5, TNIK (Homo sapiens, UniProt Q9UKE5).
T5 construct: purchased DiscoverX
Described as above. To be noted: absence of ATP, three-point titration.
Text: as §1

The target of series [8] is T6, GAK (Homo sapiens, UniProt O14976).
T6 construct: purchased DiscoverX
Described as above. To be noted: absence of ATP, three-point titration.
Text: as §1

Series [9] has as its target T7, Abl1 (Homo sapiens, UniProt P00519).
T7 construct: purchased DiscoverX
Described as above. To be noted: absence of ATP, three-point titration.
Text: as §1

Series [10] addresses T8, Braf (Homo sapiens, UniProt P15056).
T8 construct: purchased DiscoverX
The series is described as above. To be noted: absence of ATP, three-point titration.
Text: as §1

Series [11] concerns the target T9, TGFβR2 (Homo sapiens, UniProt P37173).
T9 construct: purchased DiscoverX
The description is as above. The conditions noted are these: absence of ATP, three-point titration.
Text: as §1

Series [12] addresses T10, Alk4/ACVR1B (Homo sapiens, UniProt P36896).
T10 construct: purchased DiscoverX
The description is as above. To be noted: absence of ATP, three-point titration.
Text: as §1

For series [13], the target named is T11, MINK (Homo sapiens, UniProt Q8N4C8).
T11 construct: purchased DiscoverX
The description is as above. The conditions noted are these: absence of ATP, three-point titration.
Text: as §1

For series [14], the target named is T12, ACVR2A (Homo sapiens, UniProt P27037).
T12 construct: purchased DiscoverX
T12 sequence (P27037 20-513): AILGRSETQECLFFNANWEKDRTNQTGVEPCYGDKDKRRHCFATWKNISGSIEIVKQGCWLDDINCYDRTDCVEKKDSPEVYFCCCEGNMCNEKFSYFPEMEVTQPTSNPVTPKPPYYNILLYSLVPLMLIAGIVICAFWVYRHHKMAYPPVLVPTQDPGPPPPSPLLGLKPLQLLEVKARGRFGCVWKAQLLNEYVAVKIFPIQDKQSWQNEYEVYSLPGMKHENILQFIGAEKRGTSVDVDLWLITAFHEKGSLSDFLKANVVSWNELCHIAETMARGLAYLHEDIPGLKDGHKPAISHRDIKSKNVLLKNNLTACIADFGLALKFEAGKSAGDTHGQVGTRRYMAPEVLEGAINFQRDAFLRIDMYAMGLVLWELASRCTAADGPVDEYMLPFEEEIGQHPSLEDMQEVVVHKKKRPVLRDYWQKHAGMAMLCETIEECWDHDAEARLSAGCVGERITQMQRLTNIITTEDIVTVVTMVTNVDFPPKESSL
Described as above. To be noted: absence of ATP, three-point titration.
Text: as §1

The target in series [15] is T13, Alk2/ACVR1 (Homo sapiens, UniProt Q04771).
T13 construct: purchased DiscoverX
The description is as above. The conditions noted are these: absence of ATP, three-point titration.
Text: as §1

Series [16] addresses T14, Alk1/ACVRL1 (Homo sapiens, UniProt P37023).
T14 construct: purchased DiscoverX
The description is as above. To be noted: absence of ATP, three-point titration.
Text: as §1

For series [17], the target named is RSK4 (Homo sapiens, UniProt Q9UK32). The description is as above. The conditions noted are these: absence of ATP, three-point titration.
Sequence of RSK4 (Q9UK32 73-330): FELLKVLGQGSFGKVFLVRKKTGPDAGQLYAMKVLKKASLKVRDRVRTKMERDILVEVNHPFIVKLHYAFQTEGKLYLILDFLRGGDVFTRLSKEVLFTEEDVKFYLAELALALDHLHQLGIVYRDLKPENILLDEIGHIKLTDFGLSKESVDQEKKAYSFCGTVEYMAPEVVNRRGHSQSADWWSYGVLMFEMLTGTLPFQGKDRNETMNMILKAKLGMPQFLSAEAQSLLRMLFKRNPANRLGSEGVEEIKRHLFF
Text: as §1

Series [18] addresses T15, RIPK2 (Homo sapiens, UniProt O43353).
T15 construct: purchased DiscoverX
The description is as above. The conditions noted are these: absence of ATP, three-point titration.
Text: as §1

Series [19] concerns the target T16, NLK (Homo sapiens, UniProt Q9UBE8).
T16 construct: purchased DiscoverX
The series is described as above. To be noted: absence of ATP, three-point titration.
Text: as §1

For series [20], the target named is T17, Alk6/BMPR1 (Homo sapiens, UniProt O00238).
T17 construct: purchased DiscoverX
T17 sequence (O00238 14-502): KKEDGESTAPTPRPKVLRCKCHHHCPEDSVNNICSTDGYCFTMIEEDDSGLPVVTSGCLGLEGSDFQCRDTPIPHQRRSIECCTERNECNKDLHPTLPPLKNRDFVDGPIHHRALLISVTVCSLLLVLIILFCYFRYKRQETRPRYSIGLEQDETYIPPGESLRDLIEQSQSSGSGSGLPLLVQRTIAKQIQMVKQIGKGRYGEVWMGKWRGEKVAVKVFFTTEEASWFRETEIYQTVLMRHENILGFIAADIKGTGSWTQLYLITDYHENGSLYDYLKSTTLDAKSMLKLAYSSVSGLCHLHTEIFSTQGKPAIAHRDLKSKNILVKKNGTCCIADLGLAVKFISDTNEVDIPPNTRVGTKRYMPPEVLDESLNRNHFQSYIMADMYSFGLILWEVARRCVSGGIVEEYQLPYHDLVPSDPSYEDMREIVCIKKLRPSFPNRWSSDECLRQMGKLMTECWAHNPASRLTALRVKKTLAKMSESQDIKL
Described as above. To be noted: absence of ATP, three-point titration.
Text: as §1

Some results are limits rather than exact numbers.

T10 sequence (P36896 24-505): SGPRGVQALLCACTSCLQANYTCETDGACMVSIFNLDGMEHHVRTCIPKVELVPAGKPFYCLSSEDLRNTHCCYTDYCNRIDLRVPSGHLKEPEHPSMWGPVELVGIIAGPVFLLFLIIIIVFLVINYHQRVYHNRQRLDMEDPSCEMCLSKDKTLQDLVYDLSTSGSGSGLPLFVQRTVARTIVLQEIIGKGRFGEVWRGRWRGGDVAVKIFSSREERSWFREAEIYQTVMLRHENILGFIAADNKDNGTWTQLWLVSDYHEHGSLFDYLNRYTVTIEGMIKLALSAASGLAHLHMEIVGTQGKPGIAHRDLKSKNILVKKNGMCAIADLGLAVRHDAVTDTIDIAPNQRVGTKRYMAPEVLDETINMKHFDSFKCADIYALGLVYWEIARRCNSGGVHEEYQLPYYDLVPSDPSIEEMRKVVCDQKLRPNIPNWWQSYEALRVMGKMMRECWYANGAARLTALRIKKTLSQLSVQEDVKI
T9 sequence (P37173 23-567): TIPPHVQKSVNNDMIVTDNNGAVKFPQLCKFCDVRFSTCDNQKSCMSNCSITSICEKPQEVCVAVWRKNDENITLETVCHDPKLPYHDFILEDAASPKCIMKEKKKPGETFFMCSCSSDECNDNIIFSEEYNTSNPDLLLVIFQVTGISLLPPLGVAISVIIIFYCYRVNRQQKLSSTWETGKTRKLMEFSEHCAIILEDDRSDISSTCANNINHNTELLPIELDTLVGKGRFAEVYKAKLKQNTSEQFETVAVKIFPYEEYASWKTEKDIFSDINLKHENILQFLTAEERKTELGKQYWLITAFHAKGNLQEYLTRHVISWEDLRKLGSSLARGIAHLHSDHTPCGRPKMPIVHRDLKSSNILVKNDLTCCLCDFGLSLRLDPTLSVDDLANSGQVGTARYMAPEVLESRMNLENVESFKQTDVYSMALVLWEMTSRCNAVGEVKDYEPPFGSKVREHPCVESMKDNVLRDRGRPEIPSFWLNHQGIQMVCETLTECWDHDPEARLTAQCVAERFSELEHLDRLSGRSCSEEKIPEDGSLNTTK
T8 sequence (P15056 whole entry): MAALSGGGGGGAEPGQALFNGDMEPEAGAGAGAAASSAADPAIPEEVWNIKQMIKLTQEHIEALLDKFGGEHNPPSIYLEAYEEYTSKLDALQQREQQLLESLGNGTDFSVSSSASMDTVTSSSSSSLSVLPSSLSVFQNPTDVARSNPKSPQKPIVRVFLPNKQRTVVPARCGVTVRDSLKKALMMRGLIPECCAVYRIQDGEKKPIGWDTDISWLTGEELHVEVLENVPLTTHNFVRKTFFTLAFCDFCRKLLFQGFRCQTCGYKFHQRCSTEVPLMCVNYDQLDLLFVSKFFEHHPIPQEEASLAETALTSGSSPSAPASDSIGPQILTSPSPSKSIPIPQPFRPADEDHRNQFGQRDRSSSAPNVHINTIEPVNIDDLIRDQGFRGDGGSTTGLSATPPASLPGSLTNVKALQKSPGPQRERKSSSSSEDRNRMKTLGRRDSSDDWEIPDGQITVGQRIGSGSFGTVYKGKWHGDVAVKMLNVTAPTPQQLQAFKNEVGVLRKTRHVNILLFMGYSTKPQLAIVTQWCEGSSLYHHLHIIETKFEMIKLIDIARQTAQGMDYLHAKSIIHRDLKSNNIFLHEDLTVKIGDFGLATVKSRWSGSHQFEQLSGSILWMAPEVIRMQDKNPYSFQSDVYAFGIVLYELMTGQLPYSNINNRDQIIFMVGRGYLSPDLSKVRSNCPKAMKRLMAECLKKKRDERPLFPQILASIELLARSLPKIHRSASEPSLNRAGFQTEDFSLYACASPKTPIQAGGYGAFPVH
T14 sequence (P37023 22-503): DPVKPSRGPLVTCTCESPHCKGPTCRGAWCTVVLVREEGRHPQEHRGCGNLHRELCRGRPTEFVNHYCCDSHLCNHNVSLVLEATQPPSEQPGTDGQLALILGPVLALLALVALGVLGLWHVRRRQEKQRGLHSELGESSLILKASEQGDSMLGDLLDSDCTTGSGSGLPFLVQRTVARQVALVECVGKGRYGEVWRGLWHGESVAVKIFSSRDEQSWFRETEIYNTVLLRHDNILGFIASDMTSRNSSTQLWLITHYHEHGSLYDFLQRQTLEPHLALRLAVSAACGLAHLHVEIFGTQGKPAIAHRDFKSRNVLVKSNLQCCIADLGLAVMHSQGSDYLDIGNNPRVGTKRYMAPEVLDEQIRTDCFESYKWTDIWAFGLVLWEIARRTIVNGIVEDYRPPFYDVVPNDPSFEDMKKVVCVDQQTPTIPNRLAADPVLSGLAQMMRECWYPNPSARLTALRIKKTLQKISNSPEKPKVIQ
T15 sequence (O43353 whole entry): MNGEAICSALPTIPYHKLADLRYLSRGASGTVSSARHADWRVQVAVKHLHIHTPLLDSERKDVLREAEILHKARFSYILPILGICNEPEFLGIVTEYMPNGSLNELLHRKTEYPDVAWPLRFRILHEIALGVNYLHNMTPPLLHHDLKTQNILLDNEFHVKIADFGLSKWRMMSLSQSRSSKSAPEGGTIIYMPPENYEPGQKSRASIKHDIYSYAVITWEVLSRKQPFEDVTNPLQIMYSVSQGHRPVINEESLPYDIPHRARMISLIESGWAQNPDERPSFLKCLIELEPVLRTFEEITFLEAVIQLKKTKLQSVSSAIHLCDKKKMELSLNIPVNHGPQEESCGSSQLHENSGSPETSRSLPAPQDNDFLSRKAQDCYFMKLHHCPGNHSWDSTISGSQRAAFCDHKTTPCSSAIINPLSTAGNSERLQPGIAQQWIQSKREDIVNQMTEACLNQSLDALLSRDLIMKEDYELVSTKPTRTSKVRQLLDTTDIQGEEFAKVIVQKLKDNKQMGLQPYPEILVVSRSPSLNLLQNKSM
T4 sequence (P36894 24-532): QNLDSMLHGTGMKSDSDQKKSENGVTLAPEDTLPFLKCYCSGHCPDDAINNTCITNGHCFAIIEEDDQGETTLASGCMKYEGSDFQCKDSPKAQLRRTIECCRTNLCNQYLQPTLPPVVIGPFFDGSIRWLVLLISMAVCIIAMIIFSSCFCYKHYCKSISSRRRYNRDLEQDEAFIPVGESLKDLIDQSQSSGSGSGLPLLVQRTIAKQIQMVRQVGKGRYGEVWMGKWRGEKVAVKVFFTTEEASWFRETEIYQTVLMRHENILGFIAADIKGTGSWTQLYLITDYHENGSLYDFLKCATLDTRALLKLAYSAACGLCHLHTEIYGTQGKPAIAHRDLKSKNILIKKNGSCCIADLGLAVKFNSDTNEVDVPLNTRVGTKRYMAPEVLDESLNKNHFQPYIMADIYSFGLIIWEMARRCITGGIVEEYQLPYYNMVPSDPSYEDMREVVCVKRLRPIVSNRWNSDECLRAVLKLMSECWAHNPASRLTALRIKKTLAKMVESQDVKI

As to `Cc1cccc(-c2nn3c(c2-c2ccnc4ccc(C(N)=O)cc24)CCC3)n1.O` [galunisertib, 4-[2-(6-methylpyridin-2-yl)-5,6-dihydro-4H-pyrrolo[1,2-b]pyrazol-3-yl]quinoline-6-carboxamide monohydrate], in series [1], the “adverse effects at high doses” value is recorded as “associated with adverse effects”. Further, the “TGFβ1-mediated EMT (epithelial morphology, membrane E-cadherin)” value in [2] was “prevented TGFβ1-mediated EMT”. Besides, the IC50 in series [3] is 860 nM; in series [4], 400 nM; in series [5], above 60000 nM; in series [6] it was 16800 nM; in [7], 510 nM; in series [8], 310 nM. The concentration for half-maximal inhibition (IC50) worked out at 860 nM in series [9]; 500 nM in series [10]; 210 nM in series [11]; 208 nM in series [11] (listed as Galunisertib); 80 nM in series [12]; 77.7 nM in [12] (listed as Galunisertib). Besides, the concentration for half-maximal inhibition (IC50) in series [13] is 190 nM; in series [14], above 20000 nM; in series [15], above 20000 nM; in series [16], above 20000 nM; in [17], 720 nM; in series [18], 220 nM. Moreover, the values for the IC50 in series [19], in series [20] and in series [20] (listed as Galunisertib) were 910 nM, 470 nM and 471 nM, respectively.

One may read the IC50 as the midpoint of a concentration-inhibition curve.
